Experiments:
[1] = biological target: T1, KPC-2 β-lactamase (Class A carbapenemase) (Klebsiella pneumoniae, UniProt Q9F663); assay: β-Lactamase inhibition, KPC-2; assay type: biochemical; details: imipenem substrate, 300 nm; 15 min preincubation at 37° C., PBS pH 7.4
T1 construct: made in house; host or cells: E. coli BL21(DE3)
Method in brief: (§1)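 IC50 is the inhibitor level cutting initial substrate hydrolysis rate by 50% relative to no-inhibitor controls, after 15 min enzyme–inhibitor preincubation at 37 °C. KPC-2 read with imipenem at 300 nm, SHV-5 with cefotaxime at 260 nm; enzymes were untagged, E. coli-expressed, chromatographically purified.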

[2] = system: K. pneumoniae A-1797 expressing KPC-2 and VIM-4; assay: Broth microdilution MIC, K. pneumoniae A-1797 KPC-2/VIM-4; assay type: cell-based; details: fixed 4 μg/mL meropenem; CAMHB, 16-20 hours at 37° C.
Method in brief: (§2)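 CAMHB, CLSI broth microdilution; strains pre-grown 3-5 h. Compound 32–0.25 μg/ml (2-fold series) + fixed β-lactam 4 μg/ml overlay. 37° C, 16-20 h; MIC scored by eye.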

[3] = system: E. cloacae 144200 expressing Class C P99 AmpC; assay: Broth microdilution MIC, E. cloacae 144200 p99 AmpC; assay type: cell-based; details: fixed 4 μg/mL ceftazidime; CAMHB, 16-20 hours at 37° C.
Method in brief: as §2

[4] = biological target: T2, SHV-5 β-lactamase (Class A ESBL) (Klebsiella pneumoniae, UniProt P0A3M1); assay: β-Lactamase inhibition, SHV-5; assay type: biochemical
T2 construct: made in house; host or cells: E. coli BL21(DE3)
Method in brief: as §1

[5] = system: K. pneumoniae 156319 expressing KPC-3; assay: Broth microdilution MIC, K. pneumoniae 156319 KPC-3; assay type: cell-based; details: fixed 4 μg/mL meropenem; CAMHB, 16-20 hours at 37° C.
Method in brief: as §2

[6] = system: P. aeruginosa Ps296 expressing VIM-2; assay: Broth microdilution MIC, P. aeruginosa Ps296 VIM-2; assay type: cell-based; details: fixed 4 μg/mL meropenem; CAMHB, 16-20 hours at 37° C.
Method in brief: as §2

[7] = system: S. aureus MSSA-7 producing penicillinase PC-1; assay: Broth microdilution MIC, S. aureus MSSA-7 PC-1; assay type: cell-based; details: fixed 4 μg/mL piperacillin; CAMHB, 16-20 hours at 37° C.
Method in brief: as §2

[8] = biological target: T3, VIM-2 metallo-β-lactamase (Class B) (Pseudomonas aeruginosa, UniProt Q9K2N0); assay: β-Lactamase inhibition, VIM-2; assay type: biochemical; details: nitrocefin 100 μM, 486 nm; 15 min preincubation at 37° C., PBS pH 7.4
T3 construct: made in house; host or cells: E. coli BL21(DE3)
Method in brief: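 Enzyme + inhibitor, 37 °C, 15 min; nitrocefin 100 μM final; A486 read for 10 min. % inhibition vs no-inhibitor wells per concentration; IC50 = concentration halving initial hydrolysis rate.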

[9] = biological target: T4, OXA-1 β-lactamase (Class D oxacillinase) (Escherichia coli, UniProt P13661); assay: β-Lactamase inhibition, OXA-1; assay type: biochemical; details: nitrocefin 100 μM, 486 nm; 15 min preincubation at 37° C., PBS pH 7.4
T4 construct: made in house; host or cells: E. coli BL21(DE3)
Method in brief: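 Compounds are mixed with purified, untagged recombinant β-lactamase and held 15 min at 37 °C. Substrate is then added: nitrocefin (100 μM final) for OXA-1, imipenem for KPC-2, cefotaxime for SHV-5. Absorbance is followed immediately, and percent inhibition per concentration gives the IC50.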

[10] = biological target: T5, p99 AmpC β-lactamase (Class C) (Enterobacter cloacae, UniProt P05364); assay: β-Lactamase inhibition, p99 AmpC; assay type: biochemical
T5 construct: made in house; host or cells: E. coli BL21(DE3)

[11] = system: E. coli ESBL4 expressing CTX-M-15; assay: Broth microdilution MIC, E. coli ESBL4 CTX-M-15; assay type: cell-based; details: fixed 4 μg/mL ceftazidime; CAMHB, 16-20 hours at 37° C.
Method in brief: as §2

T2 sequence (P0A3M1 22-286): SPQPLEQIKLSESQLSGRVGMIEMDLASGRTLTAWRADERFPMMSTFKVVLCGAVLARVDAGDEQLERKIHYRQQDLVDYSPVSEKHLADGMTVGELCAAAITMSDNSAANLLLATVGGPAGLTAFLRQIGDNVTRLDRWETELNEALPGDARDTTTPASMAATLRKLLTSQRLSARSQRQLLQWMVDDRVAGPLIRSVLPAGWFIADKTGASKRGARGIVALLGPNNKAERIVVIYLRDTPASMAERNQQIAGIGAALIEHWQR
T5 sequence (P05364 21-381): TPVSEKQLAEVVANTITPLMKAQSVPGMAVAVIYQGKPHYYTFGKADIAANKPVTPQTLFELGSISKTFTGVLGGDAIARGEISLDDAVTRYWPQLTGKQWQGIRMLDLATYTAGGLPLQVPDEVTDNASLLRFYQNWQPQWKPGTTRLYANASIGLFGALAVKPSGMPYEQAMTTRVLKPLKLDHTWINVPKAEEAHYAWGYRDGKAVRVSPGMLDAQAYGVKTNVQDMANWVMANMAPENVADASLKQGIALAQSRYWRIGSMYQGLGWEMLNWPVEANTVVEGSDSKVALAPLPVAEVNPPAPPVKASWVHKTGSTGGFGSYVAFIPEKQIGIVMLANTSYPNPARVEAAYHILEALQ
T4 sequence (P13661 26-276): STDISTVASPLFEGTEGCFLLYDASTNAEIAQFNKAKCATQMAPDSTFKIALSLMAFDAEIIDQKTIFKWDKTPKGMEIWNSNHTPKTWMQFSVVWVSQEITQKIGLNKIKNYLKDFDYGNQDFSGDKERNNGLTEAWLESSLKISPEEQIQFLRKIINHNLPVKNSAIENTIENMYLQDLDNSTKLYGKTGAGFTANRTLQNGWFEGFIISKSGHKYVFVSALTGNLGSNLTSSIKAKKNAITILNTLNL
T1 sequence (Q9F663 25-293, looked up): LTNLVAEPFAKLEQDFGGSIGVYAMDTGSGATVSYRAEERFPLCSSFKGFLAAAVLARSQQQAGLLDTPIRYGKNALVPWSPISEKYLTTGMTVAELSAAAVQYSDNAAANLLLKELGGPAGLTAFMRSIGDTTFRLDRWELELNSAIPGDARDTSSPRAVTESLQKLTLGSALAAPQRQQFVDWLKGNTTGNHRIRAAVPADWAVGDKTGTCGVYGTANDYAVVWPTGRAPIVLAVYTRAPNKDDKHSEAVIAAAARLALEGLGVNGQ

| Structure (SMILES) | IC50 [1] | MIC of example compound in presence of fixed β-lactam: Fixed Mero, K. P. A-1797 KPC-2 VIM-4 [2] | MIC of example compound in presence of fixed β-lactam: Fixed CAZ, E. cl. 144200 p99 AmpC [3] | IC50 [4] | MIC of example compound in presence of fixed β-lactam: Fixed Mero, K. P. 156319 KPC-3 [5] | MIC of example compound in presence of fixed β-lactam: Fixed Mero, P. aerug. Ps296 VIM-2 [6] | MIC of example compound in presence of fixed β-lactam: Fixed Pip, S. aureus MSSA-7 PC-1 [7] | IC50 [8] | IC50 [9] | IC50 [10] | MIC of example compound in presence of fixed β-lactam: Fixed CAZ, E. coli ESBL4 CTX-M-15 [11] |
| --- | --- | --- | --- | --- | --- | --- | --- | --- | --- | --- | --- |
| O=C(CN1CCN(CCO)CC1)N[C@H]1Cc2cccc(C(=O)O)c2OB1O [Example 18, 2-Hydroxy-3-{2-[4-(2-hydroxy-ethyl)-piperazin-1-yl]-acetylamino}-3,4-dihydro-2H-benzo[e][1,2]oxaborinine-8-carboxylic acid] | 100 to 1000 nM | B (the MIC in the presence of between 8 and 32 μg/mL of a β-lactamase inhibitor) | C (the MIC in the presence of <4 μg/mL of a β-lactamase inhibitor) | 100 to 1000 nM | C (the MIC in the presence of <4 μg/mL of a β-lactamase inhibitor) | B (the MIC in the presence of between 8 and 32 μg/mL of a β-lactamase inhibitor) | A (an MIC of the fixed β-lactam antibiotic in the presence of >32 μg/mL of a β-lactamase inhibitor) | 0.1 to 1 µM | < 100 nM | < 100 nM | B (the MIC in the presence of between 8 and 32 μg/mL of a β-lactamase inhibitor) |
| CN1CCC(C(=O)N[C@H]2Cc3cccc(C(=O)O)c3OB2O)(N(C)C)CC1 [Example 51, 3-[(4-Dimethylamino-1-methyl-piperidine-4-carbonyl)-amino]-2-hydroxy-3,4-dihydro-2H-benzo[e][1,2]oxaborinine-8-carboxylic acid] | < 100 nM | A (an MIC of the fixed β-lactam antibiotic in the presence of >32 μg/mL of a β-lactamase inhibitor) | C (the MIC in the presence of <4 μg/mL of a β-lactamase inhibitor) | 1000 to 10000 nM | C (the MIC in the presence of <4 μg/mL of a β-lactamase inhibitor) | C (the MIC in the presence of <4 μg/mL of a β-lactamase inhibitor) | C (the MIC in the presence of <4 μg/mL of a β-lactamase inhibitor) | 1 to 10 µM | 100 to 1000 nM | < 100 nM | C (the MIC in the presence of <4 μg/mL of a β-lactamase inhibitor) |
| O=C(CNC1CCNCC1)N[C@H]1Cc2cccc(C(=O)O)c2OB1O [Example 40, 2-Hydroxy-3-[2-(piperidin-4-ylamino)-acetylamino]-3,4-dihydro-2H-benzo[e][1,2]oxaborinine-8-carboxylic acid] | 100 to 1000 nM | B (the MIC in the presence of between 8 and 32 μg/mL of a β-lactamase inhibitor) | C (the MIC in the presence of <4 μg/mL of a β-lactamase inhibitor) | < 100 nM | B (the MIC in the presence of between 8 and 32 μg/mL of a β-lactamase inhibitor) | C (the MIC in the presence of <4 μg/mL of a β-lactamase inhibitor) | C (the MIC in the presence of <4 μg/mL of a β-lactamase inhibitor) | 0.1 to 1 µM | < 100 nM | < 100 nM | C (the MIC in the presence of <4 μg/mL of a β-lactamase inhibitor) |
| O=C(O)c1cccc2c1OB(O)[C@@H](NC(=O)C1CNCCN1)C2 (some centres unmarked) [Example 50, 2-Hydroxy-3-[(piperazine-2-carbonyl)-amino]-3,4-dihydro-2H-benzo[e][1,2]oxaborinine-8-carboxylic acid] | < 100 nM | A (an MIC of the fixed β-lactam antibiotic in the presence of >32 μg/mL of a β-lactamase inhibitor) | C (the MIC in the presence of <4 μg/mL of a β-lactamase inhibitor) | < 100 nM | C (the MIC in the presence of <4 μg/mL of a β-lactamase inhibitor) | C (the MIC in the presence of <4 μg/mL of a β-lactamase inhibitor) | C (the MIC in the presence of <4 μg/mL of a β-lactamase inhibitor) | 1 to 10 µM | < 100 nM | < 100 nM | C (the MIC in the presence of <4 μg/mL of a β-lactamase inhibitor) |
| CN(C)CCN1CCN(CC(=O)N[C@H]2Cc3cccc(C(=O)O)c3OB2O)CC1 [Example 3, 3-{2-[4-(2-Dimethylamino-ethyl)-piperazin-1-yl]-acetylamino}-2-hydroxy-3,4-dihydro-2H-benzo[e][1,2]oxaborinine-8-carboxylic acid] | < 100 nM | B (the MIC in the presence of between 8 and 32 μg/mL of a β-lactamase inhibitor) | C (the MIC in the presence of <4 μg/mL of a β-lactamase inhibitor) | < 100 nM | C (the MIC in the presence of <4 μg/mL of a β-lactamase inhibitor) | C (the MIC in the presence of <4 μg/mL of a β-lactamase inhibitor) | C (the MIC in the presence of <4 μg/mL of a β-lactamase inhibitor) | 1 to 10 µM | 100 to 1000 nM | < 100 nM | C (the MIC in the presence of <4 μg/mL of a β-lactamase inhibitor) |
| NCCC(=O)NC1CCN(CC(=O)N[C@H]2Cc3cccc(C(=O)O)c3OB2O)CC1 [Example 27, 3-{2-[4-(3-Amino-propionylamino)-piperidin-1-yl]-acetylamino}-2-hydroxy-3,4-dihydro-2H-benzo[e][1,2]oxaborinine-8-carboxylic acid] | 100 to 1000 nM | B (the MIC in the presence of between 8 and 32 μg/mL of a β-lactamase inhibitor) | B (the MIC in the presence of between 8 and 32 μg/mL of a β-lactamase inhibitor) | 100 to 1000 nM | B (the MIC in the presence of between 8 and 32 μg/mL of a β-lactamase inhibitor) | B (the MIC in the presence of between 8 and 32 μg/mL of a β-lactamase inhibitor) | A (an MIC of the fixed β-lactam antibiotic in the presence of >32 μg/mL of a β-lactamase inhibitor) | 10 to 100 µM | 100 to 1000 nM | < 100 nM | C (the MIC in the presence of <4 μg/mL of a β-lactamase inhibitor) |
| O=C(O)c1cccc2c1OB(O)[C@@H](NC(=O)C1CCNCC1)C2 [Example 44, 2-Hydroxy-3-[(piperidine-4-carbonyl)-amino]-3,4-dihydro-2H-benzo[e][1,2]oxaborinine-8-carboxylic acid] | < 100 nM | A (an MIC of the fixed β-lactam antibiotic in the presence of >32 μg/mL of a β-lactamase inhibitor) | C (the MIC in the presence of <4 μg/mL of a β-lactamase inhibitor) | < 100 nM | C (the MIC in the presence of <4 μg/mL of a β-lactamase inhibitor) | A (an MIC of the fixed β-lactam antibiotic in the presence of >32 μg/mL of a β-lactamase inhibitor) | C (the MIC in the presence of <4 μg/mL of a β-lactamase inhibitor) | 10 to 100 µM | < 100 nM | < 100 nM | C (the MIC in the presence of <4 μg/mL of a β-lactamase inhibitor) |

Source: patent publication US10294248B2, “Beta-lactamase inhibitors” (VenatoRx Pharmaceuticals, Inc., priority 2013, dated 2019)
